Conditions: from C=CCCC(=O)Nc1cc(NC(=O)OC)ccc1-c1nnc(Cl)cc1C(CC=C)NC(=O)OC(C)(C)C; rcm bond; 12-membered ring; Grubbs II (0.3 eq); DCM; 6.6 mM; 40.0 °C; 1.0 h

## COC(=O)Nc1ccc2c(c1)NC(=O)CCC=CCC(NC(=O)OC(C)(C)C)c1cc(Cl)nnc1-2 (stereo not shown)
  ring closure, isolated yield: 56%

Source: patent publication US10487086
